pEC50: −log10 of the molar value.
Assays:
HER2YVMA = HER2YVMA (Homo sapiens, UniProt P04626, INS775YVMA); test: HER2 signaling (pHER2) in Hek293-HER2YVMA cells; assay type: cell-based; set-up: expressed in transfected cells; host or cells: HEK293 (pool), Ba/F3 (clones), BEAS2B (clones); lentiviral vector pCDH-CMV-MCS-EF1-Neo; details: 1.5 hr compound, 1% FBS, read-out: HEKYVMA pHER2 EC50
Method: Cell culture, plasmid cloning, and lentiviral transduction were carried out according to standard procedures. The Human HER2 cDNA construct in pCMV6-Entry for the HER2 wildtype (WT) expression was obtained from Origene. The HER2 cDNA including the 12-nucleotide insertion corresponding to YVMA insertion (HER2YVMA) was codon optimized, synthesized and cloned by GenScript (Piscataway, NJ) in pcDNA3.1. The lentiviral constructs expressing HER2YVMA and HER2 WT were sub-cloned using PCR at System Biosciences (SBI, Mountainview, CA) into lentiviral vectors pCDH-CMV-MCS-EF1-Neo and lentiviral particles were generated.
Engineered lines expressing HER2YVMA and HER2 WT were prepared in HEK293 (human embryonic kidney cells), Ba/F3 (Interleukin 3 (IL3)-dependent murine pro B cell line), and BEAS2B (primary immortalized human bronchial epithelial cell line). Ba/F3, BEAS2B, and HEK293 cells were obtained from the American Type Culture Collection (ATCC, Manassas, VA). Parental Ba/F3 cells were grown in suspension in complete RPMI 1640 supplemented with 10% FBS and 1% P/S and 10 ng/ml interleukin 3 (IL3, Sigma-Aldrich). Hek293 and BEAS2B cells were grown as monolayers in DMEM supplemented with 10% FBS and 1% P/S. All cells were maintained and propagated in a humidified 5% CO2 incubator at 37° C.
To generate Ba/F3, BEAS2B, and Hek-293 cells engineered with lentivirus to express HER2 WT or HER2YVMA, the cells were transduced with lentiviruses at multiplicity of infection (MOI) of 1 or 10; transduced cells were selected and maintained with G418 ([…]) (Geneticin, Life Technologies, Carlsbad, CA). Ba/F3 engineered cells were subjected to gradual withdrawal of interleukin 3 (IL-3, Sigma-Aldrich). After selection, IL3 independent Ba/F3 HER2YVMA, and BEAS2B HER2YVMA cells were cloned by limiting dilution. Hek293 HER2YVMA cells were used as pool. HER2 and phospho HER2 levels were confirmed by flow cytometery and immunoassay (MSD, Meso-Scale Discovery, Rockville, Maryland).
HER2 signaling was assessed in BT474 and N87 cell lines which endogenously overexpress the HER2 wildtype (WT) protein, in NCI-H1781 cells which endogenously expresses a HER2 mutant protein containing a VC insertion in the kinase domain (HER2VC or G776delinsVC), and in engineered cell lines transduced to express the Her2 mutant protein containing the YVMA insertion (Hek293-HER2YVMA and BEAS2B-HER2YVMA).
BT474, N87, and NCI-H1781 were plated in 96-well tissue-culture treated plates (Corning Costar, Sigma-Aldrich) in full media and incubated overnight. Hek293-HER2YVMA and BEAS2B-HER2YVMA cells were plated in 96-well poly-D-lysine treated plates (BD Bioscience, San Jose, CA). For treatment with test compounds, the media was replaced with corresponding low serum media (1% FBS) containing test compound at 1.1, 0.37, 0.12, 0.041, 0.014, 0.005, 0.0014, 0.0005 μM or DMSO control (0.1%). Cells were incubated with compound for 1.5 hr at 37° C. After compound treatment, the media was removed and cells were lysed for 30 min on ice in complete MSD lysis buffer (prepared using MSD base lysis buffer (Meso-Scale Discovery) supplemented with cOmplete, EDTA-free Protease inhibitor cocktail (Roche), Phosphatase Inhibitor Cocktails 2 and 3 (Sigma-Aldrich), and 1 mM PMSF (Sigma-Aldrich)). Lysates were stored at −70° C. until further analysis.
HER2 signaling was evaluated using phospho (Tyr1248)/total ErbB2 whole cell lysate MSD plates (Meso-Scale Discovery, Gaithersburg, MD). The phospho HER2 signal was normalized to total HER2 for each sample; results are reported as % DMSO control. The normalized data was fitted using a sigmoidal curve analysis program (Graph Pad Prism version 6) with variable Hill slope to determine EC50 values.
The HER2 signaling results are provided in Table 4, under columns titled “BT474-pHER2 EC50”, “N87-pHER2 EC50”, and “NCI-H1781-pHER2 EC50”. […]

EGFR = EGFR (Homo sapiens, UniProt P00533); test: EGFR signaling (pEGFR Tyr1068/total EGFR MSD) in A431 cells; assay type: cell-based; set-up: endogenous in cells; host or cells: A431, N87; details: for pEC50: A431 cells, read-out: A431 pEGFR EC50; for Selectivity A431 EC50/BT474 EC50: ratio A431 pEGFR EC50 to BT474 pHER2 EC50; for Selectivity A431 EC50/HEKYVMA EC50: ratio A431 pEGFR EC50 to HEK YVMA pHER2 EC50
Procedure, shortened: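 Serum-starved A431 cells were pretreated 1.5 h in 1% FBS with compound (0.005–10 μM, 0.1% DMSO), then stimulated with 100 ng/mL human EGF for 10 min. Lysate pEGFR Tyr1068 was measured by MSD and normalized to total EGFR as % DMSO control; EC50 from variable-slope sigmoidal fit.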

EGFR, sequence (P00533 25-1210): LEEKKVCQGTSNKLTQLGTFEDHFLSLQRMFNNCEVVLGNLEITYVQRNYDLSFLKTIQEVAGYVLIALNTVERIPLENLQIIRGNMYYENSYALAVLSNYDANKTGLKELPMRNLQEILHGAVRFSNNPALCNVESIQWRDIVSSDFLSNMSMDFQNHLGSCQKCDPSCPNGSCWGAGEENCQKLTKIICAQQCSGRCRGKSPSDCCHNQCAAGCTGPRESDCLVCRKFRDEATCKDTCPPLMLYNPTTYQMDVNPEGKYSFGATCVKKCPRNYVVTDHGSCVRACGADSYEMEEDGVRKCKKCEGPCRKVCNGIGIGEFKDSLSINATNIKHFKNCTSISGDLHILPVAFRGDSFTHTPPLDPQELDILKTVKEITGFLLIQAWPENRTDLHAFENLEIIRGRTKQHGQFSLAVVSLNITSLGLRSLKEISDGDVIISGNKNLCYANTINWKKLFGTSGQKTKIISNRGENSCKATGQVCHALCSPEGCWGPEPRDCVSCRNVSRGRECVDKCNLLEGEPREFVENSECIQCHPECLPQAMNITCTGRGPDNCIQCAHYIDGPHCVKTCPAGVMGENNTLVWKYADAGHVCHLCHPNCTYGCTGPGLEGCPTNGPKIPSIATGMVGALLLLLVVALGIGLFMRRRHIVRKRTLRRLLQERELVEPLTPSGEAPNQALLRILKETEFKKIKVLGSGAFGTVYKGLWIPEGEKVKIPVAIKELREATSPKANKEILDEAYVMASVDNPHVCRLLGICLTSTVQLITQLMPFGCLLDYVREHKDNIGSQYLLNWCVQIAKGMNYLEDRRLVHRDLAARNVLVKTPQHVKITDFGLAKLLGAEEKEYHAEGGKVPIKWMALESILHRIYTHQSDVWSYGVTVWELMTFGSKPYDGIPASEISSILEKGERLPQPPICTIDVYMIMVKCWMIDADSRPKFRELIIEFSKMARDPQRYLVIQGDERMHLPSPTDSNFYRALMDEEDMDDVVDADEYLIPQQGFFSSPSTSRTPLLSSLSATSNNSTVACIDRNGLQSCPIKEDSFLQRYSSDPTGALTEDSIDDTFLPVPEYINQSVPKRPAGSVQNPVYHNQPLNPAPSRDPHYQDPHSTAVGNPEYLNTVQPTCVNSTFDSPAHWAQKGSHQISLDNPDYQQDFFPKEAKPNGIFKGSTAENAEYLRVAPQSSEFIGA
HER2YVMA, sequence (P04626 with tags, fused parts or gaps INS775YVMA): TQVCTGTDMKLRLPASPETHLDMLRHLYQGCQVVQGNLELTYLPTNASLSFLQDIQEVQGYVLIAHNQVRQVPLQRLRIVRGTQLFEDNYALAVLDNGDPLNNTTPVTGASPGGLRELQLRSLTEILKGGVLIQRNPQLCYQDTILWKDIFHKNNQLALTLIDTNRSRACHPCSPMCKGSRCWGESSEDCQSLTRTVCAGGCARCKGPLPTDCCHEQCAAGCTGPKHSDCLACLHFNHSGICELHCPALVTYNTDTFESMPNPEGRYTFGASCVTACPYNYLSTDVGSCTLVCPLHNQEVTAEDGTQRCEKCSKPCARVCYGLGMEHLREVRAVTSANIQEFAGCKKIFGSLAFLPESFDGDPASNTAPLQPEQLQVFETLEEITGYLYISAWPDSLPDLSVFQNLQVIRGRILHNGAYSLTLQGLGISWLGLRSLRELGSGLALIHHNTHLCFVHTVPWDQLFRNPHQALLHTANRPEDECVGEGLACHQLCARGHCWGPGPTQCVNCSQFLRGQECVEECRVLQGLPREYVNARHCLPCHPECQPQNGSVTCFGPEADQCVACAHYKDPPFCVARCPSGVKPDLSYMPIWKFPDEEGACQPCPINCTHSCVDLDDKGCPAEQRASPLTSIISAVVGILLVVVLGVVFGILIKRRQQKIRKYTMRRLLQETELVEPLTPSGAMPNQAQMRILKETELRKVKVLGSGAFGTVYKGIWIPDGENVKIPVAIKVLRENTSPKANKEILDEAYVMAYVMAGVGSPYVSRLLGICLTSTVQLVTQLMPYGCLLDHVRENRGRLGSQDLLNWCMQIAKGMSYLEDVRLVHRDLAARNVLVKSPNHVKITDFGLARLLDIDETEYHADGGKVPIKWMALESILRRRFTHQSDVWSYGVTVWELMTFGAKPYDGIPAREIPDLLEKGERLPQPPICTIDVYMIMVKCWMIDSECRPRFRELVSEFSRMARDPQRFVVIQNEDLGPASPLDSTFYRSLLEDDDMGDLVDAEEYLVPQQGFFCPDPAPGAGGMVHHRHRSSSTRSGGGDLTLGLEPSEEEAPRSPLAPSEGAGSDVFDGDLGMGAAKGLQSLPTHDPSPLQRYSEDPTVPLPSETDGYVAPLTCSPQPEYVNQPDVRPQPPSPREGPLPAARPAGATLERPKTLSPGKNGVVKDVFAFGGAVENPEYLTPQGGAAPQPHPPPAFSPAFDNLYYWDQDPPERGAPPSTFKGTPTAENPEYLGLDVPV

Compound	pEC50 (HER2YVMA)	pEC50 (EGFR)	Selectivity A431 EC50/BT474 EC50 (EGFR)	Selectivity A431 EC50/HEKYVMA EC50 (EGFR)
Cc1cc(Nc2ncnc3sc4c(c23)CCN(C(=O)/C=C/CN(C)C)C4)ccc1Oc1ccc2nccn2c1 [Compound 109, (E)-4-(dimethylamino)-1-(4-((4-(imidazo[1,2-a]pyridin-6-yloxy)-3-methylphenyl)amino)-5,6-dihydropyrido[4′,3′:4,5]thieno[2,3-d]pyrimidin-7(8H)-yl)but-2-en-1-one]	> 7.00	6.00 to 7.00	D (D: ≥ 5 and < 10)	E (E: >1 and < 5)
Cc1cn2ccc(Oc3ccc(Nc4ncnc5sc6c(c45)CCN(C(=O)/C=C/CN(C)C)C6)cc3C)cc2n1 [Compound 110, (E)-4-(dimethylamino)-1-(4-((3-methyl-4-((2-methylimidazo[1,2-a]pyridin-7-yl)oxy)phenyl)amino)-5,8-dihydropyrido[4′,3′:4,5]thieno[2,3-d]pyrimidin-7(6H)-yl)but-2-en-1-one]	6.46 to 7.00	5.00 to 6.00	B (B: ≥ 20 and < 100)	C (C: ≥ 10 and < 20)
Cc1cc(Nc2ncnc3sc4c(c23)CN(C(=O)/C=C/CN(C)C)C4)ccc1Oc1ccc2ncnn2c1 [Compound 111, (E)-1-(4-((4-([1,2,4]Triazolo[1,5-a]pyridin-6-yloxy)-3-methylphenyl)amino)-5H-pyrrolo[3′,4′:4,5]thieno[2,3-d]pyrimidin-6(7H)-yl)-4-(dimethylamino)but-2-en-1-one]	6.46 to 7.00	5.00 to 6.00	A (A: ≥100)	B (B: ≥ 20 and < 100)
Cc1ccc(Oc2ccc(Nc3ncnc4sc5c(c34)CCN(C(=O)/C=C/CN3CC(C)(C)OC(C)(C)C3)C5)cc2C)cn1 [Compound 121]	> 7.00	5.00 to 6.00	B (B: ≥ 20 and < 100)	C (C: ≥ 10 and < 20)
CC[C@H](NC/C=C/C(=O)N1CCc2c(sc3ncnc(Nc4ccc(Oc5ccc(C)nc5)c(C)c4)c23)C1)C(F)(F)F [Compound 122]	> 7.00	6.00 to 7.00	B (B: ≥ 20 and < 100)	B (B: ≥ 20 and < 100)
Cc1ccc(Oc2ccc(Nc3ncnc4sc5c(c34)CCN(C(=O)/C=C/CN3CC4(CCCC4)C3)C5)cc2C)cn1 [Compound 123]	> 7.00	6.00 to 7.00	C (C: ≥ 10 and < 20)	D (D: ≥ 5 and < 10)
Cc1ccc(Oc2ccc(Nc3ncnc4sc5c(c34)CCN(C(=O)/C=C/CN3CC[C@H](F)C3)C5)cc2C)cn1 [Compound 124]	> 7.00	> 7.00	B (B: ≥ 20 and < 100)	C (C: ≥ 10 and < 20)
Cc1cc(Nc2ncnc3sc4c(c23)CCN(C(=O)/C=C/CN(C)C)C4)ccc1Oc1ccn2ccnc2c1 [Compound 126, (E)-4-(dimethylamino)-1-(4-((4-(imidazo[1,2-a]pyridin-7-yloxy)-3-methylphenyl)amino)-5,8-dihydropyrido[4′,3′:4,5]thieno[2,3-d]pyrimidin-7(6H)-yl)but-2-en-1-one]	> 7.00	6.00 to 7.00	B (B: ≥ 20 and < 100)	B (B: ≥ 20 and < 100)

Results, then the compound that gave them:

pEC50 (HER2YVMA)	pEC50 (EGFR)	Selectivity A431 EC50/BT474 EC50 (EGFR)	Selectivity A431 EC50/HEKYVMA EC50 (EGFR)	Compound
> 7.00	> 7.00	C (C: ≥ 10 and < 20)	A (A: ≥100)	Cc1cc(Nc2ncnc3sc4c(c23)CCN(C(=O)/C=C/CN(C)C)C4)ccc1Oc1ccc2scnc2c1 [Compound 107, (E)-1-(4-((4-(benzo[d]thiazol-5-yloxy)-3-methylphenyl)amino)-5,8-dihydropyrido[4′,3′:4,5]thieno[2,3-d]pyrimidin-7(6H)-yl)-4-(dimethylamino)but-2-en-1-one]
> 7.00	> 7.00	C (C: ≥ 10 and < 20)	C (C: ≥ 10 and < 20)	Cc1ccc(Oc2ccc(Nc3ncnc4sc5c(c34)CN(C(=O)/C=C/CN(C)C)CC5)cc2C)cn1 [Compound 108, (E)-4-(Dimethylamino)-1-(4-((3-methyl-4-((6-methylpyridin-3-yl)oxy)phenyl)amino)-7,8-dihydropyrido[3′,4′:4,5]thieno[2,3-d]pyrimidin-6(5H)-yl)but-2-en-1-one]
> 7.00	6.00 to 7.00	B (B: ≥ 20 and < 100)	C (C: ≥ 10 and < 20)	Cc1ccc(Oc2ccc(Nc3ncnc4sc5c(c34)CCN(C(=O)/C=C/CN3CCC[C@H](n4cccn4)C3)C5)cc2C)cn1 [Compound 112]
> 7.00	6.00 to 7.00	B (B: ≥ 20 and < 100)	C (C: ≥ 10 and < 20)	Cc1ccc(Oc2ccc(Nc3ncnc4sc5c(c34)CCN(C(=O)/C=C/CN3CCCC(c4nccs4)C3)C5)cc2C)cn1 (stereo not drawn) [Compound 113]
> 7.00	6.00 to 7.00	B (B: ≥ 20 and < 100)	B (B: ≥ 20 and < 100)	Cc1ccc(Oc2ccc(Nc3ncnc4sc5c(c34)CCN(C(=O)/C=C/CN3CCC(O)C(C)(C)C3)C5)cc2C)cn1 (stereo not drawn) [Compound 114]
> 7.00	6.00 to 7.00	C (C: ≥ 10 and < 20)	D (D: ≥ 5 and < 10)	Cc1ccc(Oc2ccc(Nc3ncnc4sc5c(c34)CCN(C(=O)/C=C/CN3CCCC34CCC4)C5)cc2C)cn1 [Compound 115]
> 7.00	6.00 to 7.00	B (B: ≥ 20 and < 100)	B (B: ≥ 20 and < 100)	Cc1ccc(Oc2ccc(Nc3ncnc4sc5c(c34)CCN(C(=O)/C=C/CN3CC(C)OC(C)C3C)C5)cc2C)cn1 (stereo not drawn) [Compound 117]
> 7.00	6.00 to 7.00	A (A: ≥100)	B (B: ≥ 20 and < 100)	Cc1ccc(Oc2ccc(Nc3ncnc4sc5c(c34)CCN(C(=O)/C=C/CN3CC4CC4(CO)C3)C5)cc2C)cn1 (stereo not drawn) [Compound 118]
> 7.00	6.00 to 7.00	B (B: ≥ 20 and < 100)	B (B: ≥ 20 and < 100)	Cc1ccc(Oc2ccc(Nc3ncnc4sc5c(c34)CCN(C(=O)/C=C/CN3CCCCC3(C)CO)C5)cc2C)cn1 (stereo not drawn) [Compound 119]
> 7.00	6.00 to 7.00	B (B: ≥ 20 and < 100)	B (B: ≥ 20 and < 100)	Cc1ccc(Oc2ccc(Nc3ncnc4sc5c(c34)CCN(C(=O)/C=C/CN3C[C@H]4C[C@@H]3CC4C#N)C5)cc2C)cn1 (stereo partly drawn) [Compound 120]

Source: patent publication US20240391931A1 (Bristol-Myers Squibb Company, priority 2021, published 2024)
